Earlier results as cited in patent publication US20260256955A1, “LIQUID COMPOSITION OF COMPOUND I, PREPARATION METHOD THEREFOR, AND APPLICATION THEREOF” (BEIJING SINOTAU PHARMACEUTICAL TECHNOLOGY CO., LTD, priority 2022, published 2026).

Details: animals

- cardiac uptake (15 minutes post-injection): high
- liver uptake (15 minutes post-injection): low
- heart-to-liver ratio (after 60 minutes): favorable
Structure (SMILES): CC(C)(C)n1ncc(OCc2cccc(Cn3cc(COCCOCC[18F])nn3)c2)c(Cl)c1=O [Compound I, 2-tert-butyl-4-chloro-5-((3-((4-((2-(2-fluoro[^18F]ethoxy)ethoxy)methyl)-1H-1,2,3-triazol-1-yl)methyl)benzyl)oxy)pyridazin-3(2H)-one]
